Measurements from patent publication US20140010806A1, “Treatment of Ocular Diseases” (priority 2012, published 2014).

Tests used:
NF-κB [1] = assay: LPS induced inflammation in mice, activated NF-κB in spleen cell nuclei; type: in vivo, ICR mice; conditions: about 40 mg/kg i.p. 24 hours before and 1 hour after LPS; spleens 1.5 hours after LPS
Experimental: The capacity of selected compounds to treat LPS induced inflammation in mice was examined by a protocol similar to the protocol described above. Five groups of three ICR mice weighing about 30 g were each treated by intraperitoneal injection with 120 μL vehicle (30% sulfobutylether-cyclodextrin in water), androst-5-ene-3α,7β,16α,17β-tetrol in vehicle, androst-5-ene-3β,4β,16α,17β-tetrol in vehicle or 4β-acetoxyandrost-5-ene-3β,16α,17β-triol in vehicle. All drug and vehicle formulations were solutions, not suspensions. The sulfobutylether-cyclodextrin was obtained commercially (Cydex Pharmaceuticals, Inc., Lexena, Kans.). There were two vehicle control groups one group received vehicle alone and the other received vehicle plus LPS. […] Drug was administered at about 40 mg/kg (1.2 mg drug/animal for each administration of the drugs). Spleens were harvested from the animals at 1.5 hours after injection of LPS and spleen cells were lysed and assayed for activated NF-κB by isolating nuclei from spleen cells and measuring NF-κB from the lysed nuclei. […] The level of activated NF-κB in spleen cells from the animals that were treated with vehicle and no LPS, was essentially the same as the activated NF-κB in spleen cells from drug treated animals.

MG-63 cells = assay: Reversal of dexamethasone effects in MG-63 osteoblast cells; type: cell-based, human
Description: The capacity of 17α-ethynyl-5-androstene-3β,7β,17β-triol to reverse adverse effects of glucocorticoids in bone growth was shown in the human MG-63 osteosarcoma cell line. MG-63 cells are osteoblasts, which are cells that mediate bone growth. This cell line has been used extensively to study bone biology and to characterize the biological activity of compounds for treatment of bone loss conditions (e.g., B. D. Boyan et al., J. Biol. Chem., 264(20):11879-11886, 1989; L. C. Hofbauer et al., Endocrinology, 140(10):4382-4389, 1999). Adverse toxicities associated with elevated glucocorticoid levels include a decrease in the production of IL-6 and IL-8 by osteoblasts, including the MG-63 cell line, and an increase in the expression of the 11β-hydroxysteroid dehydrogenase type 1 enzyme (11β-HSD). Increased 11β-hydroxysteroid dehydrogenase type 1 enzyme results in increased levels of endogenous glucocorticoid activity by converting endogenous cortisone to the active cortisol, which inhibits bone growth. The 11β-HSD enzyme is expressed in liver, adipose tissue, brain and bone tissues. Cortisol generated by 11β-HSD-1 contributes to osteoporosis and disorders such as stroke, neuron death, depression and Parkinson Disease. Decreases in IL-6, IL-8 and osteoprotegerin are associated with decreased bone growth by osteoblasts.

NF-κB [2] = assay: Kinetic analysis of NF-kB inhibition in vivo after LPS, ELISA of NF-κB in spleen cell nuclei; design: species or system mice; conditions: about 40 mg/kg i.p. 24 hours before LPS
Experimental: Kinetic analysis of NF-kB inhibition in vivo. […] In this study, mice were treated with 17α-ethynylandrost-5-ene-3β,7β,17β-triol (about 40 mg/kg, about 1.2 mg/animal) by intraperitoneal injection of a solution (not a suspension) of the compound in vehicle (120 μL vehicle; 30% sulfobutylether-cyclodextrin in water). The drug was injected 24 hours before intraperitoneal injection of bacterial LPS (about an LD50/24). The study used two groups of 12 animals, vehicle control or drug administered 24 hours before LPS challenge. Spleens were harvested from 3 animals from both groups just before LPS challenge and at 1.5, 2.0 and 2.5 hours after administration of LPS. Spleen cells were harvested and the level of activated NF-κB was measured by assay of NF-κB in nuclei.
Maximum NF-κB activation after LPS administration occurred at 1.5 hours in the vehicle controls, which was 4-fold increased over the pre-LPS level of activated NF-κB. The values for the vehicle control and drug treated animals are relative optical density units from ELISA measurement of NF-κB in nuclei from spleen cells.

[3] = system: popliteal lymph node cells; assay: reporter antigen popliteal lymph node (PLN) assay, immune suppression; type: in vivo, BALB/C mice; conditions: 0.1 and 1 mg/day oral gavage
Description: Analysis of immune suppression. Glucocorticoid steroids such as dexamethasone, prednisolone or hydrocortisone are typically immune suppressive and have significant toxicities associated with their use. Immune suppression was examined in a reporter antigen popliteal lymph node assay in mice essentially as previously described (C. Goebel et al., Inflamm. Res., 45(Suppl. 2):S85-S90, 1996; R. Pieters et al., Environmental Health Perspectives 107(Suppl. 5):673-677, 1999). […] In this protocol, the vehicle was 0.1% carboxymethylcellulose, 0.9% saline, 2% tween 80 and 0.05% phenol, which contained 17α-ethynylandrost-5-ene-3β,7β,17β-triol in suspension in drug treated animals. Assessment of activity included (1) measuring suppression of numbers of total lymphocytes, antigen specific IgM, IgG1 and IgG2a antibody secreting cells (ASC) (ELISPOT assay) in popliteal lymph node cells; (2) analysis of cell surface marker (CD4, CD8, CD19, F480, CD80, CD86) expression by flow cytometry of living cells in suspension; and (3) IL-4, TNFα and IFNγ production by lymphocytes in vitro (ELISA).
Groups (n=5 per group) of specific pathogen free BALB/C mice were used. […] The results were analyzed by two-tailed Student's t-test with equal variance. […] Single cell suspensions were prepared, resuspended in 1 mL PBS-BSA (1%) and counted. Cell numbers, IL-4, IL-5 and IFNγ were measured.

osteoprotegerin = assay: Osteoprotegerin levels in mice treated daily with dexamethasone; type: in vivo
Experimental: Osteoprotegerin levels in mice that were treated with vehicle and dexamethasone at 10 μg/day (positive control group) had 3.3 pmol/L osteoprotegerin, while animals treated with vehicle, dexamethasone and 17α-ethynyl-5-androstene-3β,7β,17β-triol at 4 mg/kg/day had 6.4 pmol/L osteoprotegerin (p<0.05).

[4] = system: experimental autoimmune encephalomyelitis (EAE); assay: PLP-induced experimental autoimmune encephalomyelitis (EAE); type: in vivo, SJL mice; conditions: for cumulative incidence of EAE or lethality: 0.1 mg q.d. po; for course of EAE compared to vehicle-treated mice: 0.1 mg q.d. po from clinical onset to day 30 post immunization; for mean cumulative score, follow-up period (day 31 to day 54, post treatment): after end of treatment on day 30
EAE = conditions: administered at the same time the animals were immunized; cited from earlier work
[5] = compound at 10 nM, 30 nM dexamethasone

CC(=O)O[C@@H]1C2=CC[C@H]3[C@@H]4C[C@@H](O)[C@H](O)[C@@]4(C)CC[C@@H]3[C@@]2(C)CC[C@@H]1O [4β-acetoxyandrost-5-ene-3β,16α,17β-triol]
decrease of the level of NF-κB activation compared to the LPS+vehicle control group (NF-κB [1]): about 50%

C[C@]12CC[C@H]3[C@@H]([C@H](O)C=C4C[C@@H](O)CC[C@@]43C)[C@@H]1C[C@@H](O)[C@@H]2O [3β,7α,16α,17β-tetrahydroxyandrost-5-ene]
reversal of the decrease in osteoprotegerin synthesis by MG-63 cells (MG-63 cells; [5]): near normal osteoprotegerin levels

C#C[C@]1(O)CC[C@H]2[C@@H]3[C@@H](O)C=C4C[C@@H](O)CC[C@]4(C)[C@H]3CC[C@@]21C [17α-ethynylandrost-5-ene-3β,7β,17β-triol]
NF-κB in nuclei from spleen cells (NF-κB [2]; 0 hours (just before LPS)): 22 relative optical density units | NF-κB in nuclei from spleen cells (NF-κB [2]; 1.5 hours after LPS): 2 relative optical density units | NF-κB in nuclei from spleen cells (NF-κB [2]; 2.0 hours after LPS): 7 relative optical density units | NF-κB in nuclei from spleen cells (NF-κB [2]; 2.5 hours after LPS): 9 relative optical density units | immune suppression in PLN assay [3]: not immune suppressive, but was immune enhancing | reversal of the decrease in osteoprotegerin synthesis by MG-63 cells (MG-63 cells; compound at 1 nM, 7 hours with 30 nM dexamethasone): completely reversed | osteoprotegerin levels in mice (osteoprotegerin; vehicle, dexamethasone 10 μg/day and compound at 4 mg/kg/day, 23 days, p<0.05): 6.4 pmol/L

C[C@]12CC[C@H]3[C@@H]([C@@H](O)C=C4C[C@@H](O)CC[C@@]43C)[C@@H]1C[C@@H](O)[C@@H]2O [3β,7β,16α,17β-tetrahydroxyandrost-5-ene]
cumulative incidence of EAE or lethality [4]: none of these 3 compounds significantly influenced | course of EAE compared to vehicle-treated mice ([4]; listed as androst-5-ene-3β,7β,16α,17β-tetrol): powerful anti-inflammatory properties

C[C@]12CC[C@H]3[C@@H](CC=C4[C@@H](O)[C@@H](O)CC[C@@]43C)[C@@H]1C[C@@H](O)[C@@H]2O [androst-5-ene-3β,4β,16α,17β-tetrol]
decrease of the level of NF-κB activation compared to the LPS+vehicle control group (NF-κB [1]): about 50%

C#C[C@@]1(O)CC[C@H]2[C@@H]3[C@@H](O)C=C4C[C@@H](O)CC[C@]4(C)[C@H]3CC[C@@]21C [17β-ethynylandrost-5-ene-3β,7β,17α-triol]
course of EAE compared to vehicle-treated mice [4]: powerful anti-inflammatory properties | mean cumulative score, follow-up period (day 31 to day 54, post treatment) [4]: 18.4±20.6

CC12CCC(O)CC1=CC(O)C1C2CCC2(C)C(O)C(O)CC12 (stereo not drawn) [5-androstene-3β,7β,16α,17β-triol]
reversal of the decrease in osteoprotegerin synthesis by MG-63 cells (MG-63 cells; compound at 0.1 μM, 30 nM dexamethasone): normal osteoprotegerin levels

C[C@]12CC[C@H]3[C@@H]([C@@H](O)C=C4C[C@H](O)CC[C@@]43C)[C@@H]1C[C@@H](O)[C@@H]2O [3α,7β,16α,17β-tetrahydroxyandrost-5-ene]
decrease of the level of NF-κB activation compared to the LPS+vehicle control group (NF-κB [1]): about 50% | reversal of the decrease in osteoprotegerin synthesis by MG-63 cells (MG-63 cells; [5]): normal osteoprotegerin levels

C[C@]12CC[C@H](O)CC1=CC[C@@H]1[C@@H]2CC[C@@]2(C)[C@H]1CC[C@@]2(O)C(F)(F)F [17α-trifluoromethylandrost-5-ene-3β,17β-diol]
cumulative incidence of EAE or lethality [4]: none of these 3 compounds significantly influenced | course of EAE compared to vehicle-treated mice [4]: powerful anti-inflammatory properties

Cc1cc(C)c(/C=C2\C(=O)Nc3ccccc32)[nH]1 [SU5416, Z-3-[(2,4-dimethylpyrrol-5-yl)methylidenyl]-2-indolinone, reference compound]
course of EAE compared to vehicle-treated mice [4]: ineffective | efficacy in EAE (EAE): effective

C[C@]12CC[C@H]3[C@@H](CC=C4C[C@](O)(C(F)(F)F)CC[C@@]43C)[C@@H]1CC[C@@H]2O [3α-trifluoromethylandrost-5-ene-3β,17β-diol]
cumulative incidence of EAE or lethality [4]: none of these 3 compounds significantly influenced | course of EAE compared to vehicle-treated mice [4]: powerful anti-inflammatory properties | mean cumulative score, follow-up period (day 31 to day 54, post treatment) [4]: 10.8±10.3

C[C@@H]1C[C@H]2[C@@H]3CCC4=CC(=O)C=C[C@]4(C)[C@@]3(F)[C@@H](O)C[C@]2(C)[C@@]1(O)C(=O)CO [dexamethasone, reference compound]
osteoprotegerin levels in mice (osteoprotegerin; vehicle and dexamethasone at 10 μg/day for 23 days (positive control group)): 3.3 pmol/L
